The values that follow are results of earlier work, collected in patent US20240109972A1, “ANTIBODY AND TAXANE COMBINATION THERAPY” (Genmab A/S, priority 2020, published 2024).

The data set concerns cervical cancer. The following applies: first-line, combined with paclitaxel and platinum (cisplatin or carboplatin) or paclitaxel and topotecan; cited from earlier work.

For bevacizumab, the “Median OS” value is “approximately 18 months” and the ORR is 48%.
